Reference: US11850305B2 (GLAXOSMITHKLINE BIOLOGICALS SA, priority 2010, dated 2023)
Like-named read-outs stand apart in the source and are kept apart here.

Experiments:
[1] = pKa measurement of lipid with TNS fluorescent probe; format: physicochemical
Excerpt: This is done with all eight buffers.

[2] = system: BHK cells; assay: BHK expression; format: cell-based; conditions: liposomes incubated with BHK cells overnight
Method: Liposomes with different lipids were incubated with BHK cells overnight and assessed for protein expression potency. From a baseline with RV05 lipid expression could be increased 18× by adding 10% 1,2-diphytanoyl-sn-glycero-3-phosphoethanolamine (DPyPE) to the liposome, 10× by adding 10% 18:2 (cis) phosphatidylcholine, and 900× by instead using RV01.

[3] = system: RSV F protein; assay: Total IgG titers against F protein after replicon delivery in liposomes with alternative cationic lipids; format: in vivo; conditions: cationic lipid of RV01 liposomes replaced; 2wp1 and 2wp2
Excerpt: These liposomes were also used to deliver a replicon encoding full-length RSV F protein. Total IgG titers against F protein two weeks after the first dose (2wp1) are plotted against pKa in FIG. 16. The best results are seen where the pKa is where the cationic lipid has a pKa between 5.7-5.9, but pKa alone is not enough to guarantee a high titer e.g. the lipid must still support liposome formation.
The cationic lipid in RV01 liposomes (DLinDMA) was replaced by RV16, RV17, RV18 or RV19.

[4] = probe 6-(p-toluidino)-2-naphthalenesulfonic acid (TNS), lipid alone, TNS fluorescence method, read-out: pKa of cationic lipid

pKa [1, 4]	SMILES	other results
6.1	CCCCC/C=C\C/C=C\CCCCCCCCNC(=O)C(CN(C)C)NC(=O)CCCCCCC/C=C\C/C=C\CCCCC (centres unmarked)	–
> 9	CCCCCCCC/C=C\CCCCCCCC(=O)N[C@@H](CCNC(=N)N)C(=O)NCCCCCCCCCCCCCCCC [RV02]	–
–	CCCCC/C=C\C/C=C\CCCCCCCCOCC(CN1CCC(C)(C)C1)OCCOCCO[C@H]1CC[C@@]2(C)C(=CC[C@H]3[C@@H]4CC[C@H]([C@H](C)CCCC(C)C)[C@@]4(C)CC[C@@H]32)C1 (some centres unmarked) [RV05]	pKa [1]: ~5.8
–	CCCCC/C=C\C/C=C\CCCCCCCCOCC(CN1CCCC1C)OCCOCCOCCNC(=O)O[C@H]1CC[C@@]2(C)C(=CC[C@H]3[C@@H]4CC[C@H]([C@H](C)CCCC(C)C)[C@@]4(C)CC[C@@H]32)C1 (some centres unmarked) [RV12]	pKa [1]: 7
6.1	CCCCCCCC/C=C\CCCCCCCCNC(=O)C(CN(C)C)NC(=O)CCCCCCC/C=C\CCCCCCCC (centres unmarked) [RV17]	–
–	CCCCCCCC/C=C\CCCCCCCCOCC(C[N+](C)(C)C)OCCCCCCCC/C=C\CCCCCCCC.[Cl-] (centres unmarked) [RV19]	Total IgG titers (FIG. 17) [3]: lowest results

SMILES	pKa [1, 4]	other results
CCCCC/C=C\C/C=C\CCCCCCCCOCC(CN(C)C)OCCCCCCCC/C=C\C/C=C\CCCCC (centres unmarked) [RV01, 1,2-dilinoleyloxy-N,N-dimethyl-3-aminopropane, reference compound]	~5.8	increase of protein expression from a baseline with RV05 lipid [2]: 900 ×
